Where a name gives a salt, the structure may show the parent alone. Read-outs that look alike come from different tables or passages of the source.
Tests used:
Assay type in all cases: cell-based
S. aureus ATCC 25923 = assay: MIC, CLSI broth microdilution (Table 1); settings: Staphylococcus aureus
[1] = system: S. aureus ATCC 43300 (MRSA, FQ-S); assay: MIC, CLSI broth microdilution (Table 1); settings: Staphylococcus aureus, read-out: MIC S. aureus ATCC 43300 (MRSA, FQ-S)
[2] = system: S. aureus BAA-1720 (MRSA, FQ-R); assay: MIC, CLSI broth microdilution (Table 1); settings: Staphylococcus aureus, read-out: MIC S. aureus BAA-1720 (MRSA, FQ-R)
E. faecium ATCC 19434 = assay: MIC, CLSI broth microdilution (Table 1); settings: Enterococcus faecium
E. faecalis ATCC 29212 = assay: MIC, CLSI broth microdilution (Table 1); settings: Enterococcus faecalis
S. pneumonia ATCC 49619 = assay: MIC, CLSI broth microdilution (Table 1); settings: Streptococcus pneumoniae
E. coli ATCC 25922 = assay: MIC, CLSI broth microdilution (Table 2); settings: Escherichia coli
A. baumannii ATCC 19606 = assay: MIC, CLSI broth microdilution (Table 2); settings: Acinetobacter baumannii
P. aeruginosa ATCC 27853 = assay: MIC, CLSI broth microdilution (Table 2); settings: Pseudomonas aeruginosa
K. pneumoniae ATCC 33495 = assay: MIC, CLSI broth microdilution (Table 2); settings: Klebsiella pneumoniae
H. influenzae ATCC 49247 = assay: MIC, CLSI broth microdilution (Table 2); settings: Haemophilus influenzae
[3] = system: S. maltophilia ATCC 17677; assay: MIC, CLSI broth microdilution (Table 2); settings: Stenotrophomonas maltophilia
[4] = system: Bacillus anthracis Ames strain; assay: microbe, parasite or virus in culture
[5] = system: Brucella abortus ATCC 23448; assay: microbe, parasite or virus in culture; settings: ATCC23448
[6] = system: Burkholderia mallei ATCC 23344; assay: microbe, parasite or virus in culture; settings: ATCC23344
[7] = system: Burkholderia pseudomallei ATCC 23343; assay: microbe, parasite or virus in culture; settings: ATCC23343
[8] = system: Francisella tularensis Schu S4; assay: microbe, parasite or virus in culture; settings: SCHUS4
Yersinia pestis C092 = assay: microbe, parasite or virus in culture
[9] = ATCC25923, read-out: MIC S. aureus ATCC 25923
[10] = ATCC19434, read-out: MIC E. faecium ATCC 19434
[11] = ATCC29212, read-out: MIC E. faecalis ATCC 29212
[12] = ATCC49619, read-out: MIC S. pneumonia ATCC 49619
[13] = ATCC25922, read-out: MIC E. coli ATCC 25922
[14] = ATCC19606, read-out: MIC A. baumannii B. ATCC 19606
[15] = ATCC33495, read-out: MIC K. pneumoniae ATCC 33495
[16] = ATCC49247, read-out: MIC H. influenzae ATCC 49247
[17] = ATCC17677, read-out: MIC S. maltophilia ATCC 17677
[18] = ATCC25923, Gram positive, MHB, 37° C., 16-20 hours, read-out: MIC S. aureus ATCC 25923
[19] = Gram positive, MHB, 37° C., 16-20 hours
[20] = ATCC19434, Gram positive, MHB, 37° C., 16-20 hours, read-out: MIC E. faecium ATCC 19434
[21] = ATCC49619, Gram positive, MHB, 37° C., 16-20 hours, read-out: MIC S. pneumonia ATCC 49619
[22] = ATCC19606, Gram negative, MHB, 37° C., 16-20 hours, read-out: MIC A. baumannii B. ATCC 19606
[23] = ATCC27853, Gram negative, MHB, 37° C., 16-20 hours, read-out: MIC P. aeruginosa ATCC 27853
[24] = ATCC49247, Gram negative, MHB, 37° C., 16-20 hours, read-out: MIC H. influenzae ATCC 49247
[25] = ATCC17677, Gram negative, MHB, 37° C., 16-20 hours, read-out: MIC S. maltophilia ATCC 17677

| SMILES | MIC (S. aureus ATCC 25923; [9]) [µg/mL] | MIC [1] [µg/mL] | MIC [2] [µg/mL] | MIC (E. faecium ATCC 19434; [10]) [µg/mL] | MIC (E. faecalis ATCC 29212; [11]) [µg/mL] | MIC (S. pneumonia ATCC 49619; [12]) [µg/mL] | MIC (E. coli ATCC 25922; [13]) [µg/mL] | MIC (A. baumannii ATCC 19606; [14]) [µg/mL] | MIC (K. pneumoniae ATCC 33495; [15]) [µg/mL] | MIC (H. influenzae ATCC 49247; [16]) [µg/mL] | MIC [3, 17] [µg/mL] | MIC [4] [µg/mL] | MIC [5] [µg/mL] | MIC [6] [µg/mL] | MIC [7] [µg/mL] | MIC [8] [µg/mL] | MIC (Yersinia pestis C092) [µg/mL] | MIC (S. aureus ATCC 25923; [18]) [µg/mL] | MIC [1, 19] [µg/mL] | MIC [2, 19] [µg/mL] | further results |
| --- | --- | --- | --- | --- | --- | --- | --- | --- | --- | --- | --- | --- | --- | --- | --- | --- | --- | --- | --- | --- | --- |
| Cc1c(-c2ccc(N)c(F)c2)ccn2c(=O)c(C(=O)O)cc(C3CC3)c12 [Example 2 K salt, 8-(4-amino-3-fluoro-phenyl)-1-cyclopropyl-9-methyl-4-oxo-4H-quinolizine-3-carboxylic acid] | ≤ 0.004 | 0.004 | 0.125 | 0.25 | 0.016 | 0.032 | 0.032 | 0.125 | 0.125 | ≤ 0.004 | 0.125 | 0.004 | 0.016 to 0.031 | 0.063 | 0.063 | 0.016 | 0.031 |  |  |  | MIC (P. aeruginosa ATCC 27853; ATCC27853, read-out: MIC P. aeruginosa ATCC 27853): 1 µg/mL |
| Cc1c(-c2ccncc2)ccn2c(=O)c(C(=O)O)cc(C3CC3)c12 [Example 16 K salt, 1-cyclopropyl-9-methyl-4-oxo-8-(pyridin-4-yl)-4H-quinolizine-3-carboxylic acid] | 0.016 | 0.016 | 0.5 to 1 |  | 0.064 | 0.125 | 0.032 | 0.125 | 0.125 | ≤ 0.004 | 0.125 | 0.016 | 0.063 | 0.125 | 0.125 | 0.016 to 0.031 | 0.031 |  |  |  |  |
| Cc1c(-c2cccc(N)c2)ccn2c(=O)c(C(=O)O)cc(C3CC3)c12 [Example 3 K salt, 8-(3-amino-phenyl)-1-cyclopropyl-9-methyl-4-oxo-4H-quinolizine-3-carboxylic acid] |  |  |  |  |  |  | 0.064 to 0.125 |  |  |  |  | 0.008 | 0.125 | 0.5 to 1 | 0.25 | 0.031 | 0.031 to 0.063 | 0.016 | 0.016 | 0.5 | MIC (E. faecium ATCC 19434; [20]): 1 µg/mL; MIC (E. faecalis ATCC 29212; ATCC29212, Gram positive, MHB, 37° C., 16-20 hours, read-out: MIC E. faecalis ATCC 29212): 0.064 µg/mL; MIC (S. pneumonia ATCC 49619; [21]): 0.25 µg/mL; MIC (A. baumannii ATCC 19606; [22]): 0.25 µg/mL; MIC (P. aeruginosa ATCC 27853; [23]): 2 µg/mL; MIC (K. pneumoniae ATCC 33495; ATCC33495, Gram negative, MHB, 37° C., 16-20 hours, read-out: MIC K. pneumoniae ATCC 33495): 0.25 µg/mL; MIC (H. influenzae ATCC 49247; [24]): 0.016 µg/mL; MIC [3, 25]: 0.25 µg/mL |
| Cc1c(-c2ccc(N)c(F)c2)c(F)cn2c(=O)c(C(=O)O)cc(C3CC3)c12 [Example 1 K salt, 8-(4-amino-3-fluoro-phenyl)-1-cyclopropyl-7-fluoro-9-methyl-4-oxo-4H-quinolizine-3-carboxylic acid] | ≤ 0.004 | ≤ 0.004 | 0.125 | 0.25 | 0.008 | 0.016 | 0.032 to 0.064 | 0.064 | 0.125 | ≤ 0.004 | 0.125 | 0.004 | 0.031 | 0.25 to 0.5 | 0.5 | 0.016 | 0.031 |  |  |  |  |
| Cc1c(-c2ccnc(F)c2)ccn2c(=O)c(C(=O)O)cc(C3CC3)c12 [Example 20 K salt, 1-cyclopropyl-8-(2-fluoro-pyridin-4-yl)-9-methyl-4-oxo-4H-quinolizine-3-carboxylic acid] |  |  |  |  | 0.125 |  |  |  | 0.125 to 0.25 |  |  | 0.031 | 0.063 | 0.125 | 0.25 | 0.008 to 0.016 | 0.063 | 0.032 | 0.016 | 1 | MIC (E. faecium ATCC 19434; [20]): 1 µg/mL; MIC (S. pneumonia ATCC 49619; [21]): 0.25 µg/mL; MIC (E. coli ATCC 25922; ATCC25922, Gram negative, MHB, 37° C., 16-20 hours, read-out: MIC E. coli ATCC 25922): 0.064 µg/mL; MIC (A. baumannii ATCC 19606; [22]): 0.25 µg/mL; MIC (P. aeruginosa ATCC 27853; [23]): 2 to 4 µg/mL; MIC (H. influenzae ATCC 49247; [24]): ≤ 0.004 µg/mL; MIC [3, 25]: 0.25 µg/mL |

From US20150141435A1, “2-PYRIDONE ANTIMICROBIAL COMPOSITIONS” (Emergent BioSolutions, priority 2010, published 2015)
